Experimental data: US11969428B2, “Methods and pharmaceutical compositions for treating lymphoid malignancy” (priority 2011, dated 2024)

Columns and labels:
Assay in all cases: Ambit KinomeScan screening
Assay type in all cases: binding
Details in all cases: CAL-130 10 μM
[1] = biological target: T1, EPHA2 (Homo sapiens, UniProt P29317)
T1 construct: purchased Ambit (KinomeScan screening service)
Method: (§1) CAL-130 (10 μM) was evaluated for its ability to prevent tagged kinases from interacting with immobilized “bait” ligand (Karaman et al., 2008). Results are reported as “% of control binding”, where lower numbers indicate stronger interactions with the tagged kinase. Values of >35% are considered “no hits”. PI3Kδ had the lowest percentage of control binding at 0.2% followed by PI3Kγ at 3.2% (See Table 1 below). These values indicate a high probability of a potent interaction. 353 kinases were assessed in the screen (Table 2).

[2] = biological target: T2, PDGFRA (Homo sapiens, UniProt P16234)
T2 construct: unspecified tag ('tagged kinases'); purchased Ambit (KinomeScan screening)
Method: as §1

[3] = biological target: T3, NDR2 (Homo sapiens, UniProt Q9Y2H1)
T3 construct: unspecified tag; purchased Ambit (KinomeScan screening panel)
Method: as §1

[4] = biological target: T4, FLT1 (Homo sapiens, UniProt P17948)
T4 construct: unspecified tag; purchased Ambit (KinomeScan screening service)
Method: as §1

[5] = biological target: T5, IGF1R (Homo sapiens, UniProt P08069)
T5 construct: Ambit (KinomeScan screening)
Method: as §1

[6] = biological target: T6, ERK1 (Homo sapiens, UniProt P27361)
T6 construct: unspecified tag ("tagged kinases"); purchased Ambit (KinomeScan screening service)
Method: as §1

[7] = biological target: T7, TLK2 (Homo sapiens, UniProt Q86UE8)
T7 construct: unspecified tag (tagged kinase); purchased Ambit (KinomeScan screening)
Method: as §1

[8] = biological target: T8, FGFR2 (Homo sapiens, UniProt P21802)
T8 construct: unspecified tag; purchased Ambit (KinomeScan screening service)
Method: as §1

[9] = biological target: T9, PRP4 (Homo sapiens, UniProt Q13523)
T9 construct: tag (kind not specified); purchased Ambit (KinomeScan screening service)
Method: as §1

[10] = biological target: T10, YSK4 (Homo sapiens, UniProt Q56UN5)
T10 construct: purchased Ambit (KinomeScan screening service)
Method: as §1

[11] = biological target: T11, TRKA (Homo sapiens, UniProt P04629)
T11 construct: unspecified tag (tagged kinase); purchased Ambit (KinomeScan screening)
Method: as §1

[12] = biological target: T12, SRC (Homo sapiens, UniProt P12931)
T12 construct: tag, kind not specified; purchased Ambit (KinomeScan screening service)
Method: as §1

[13] = biological target: T13, MST1 (Homo sapiens, UniProt Q13043)
T13 construct: unspecified tag ('tagged kinases'); purchased Ambit (KinomeScan screening)
Method: as §1

[14] = biological target: T14, CDK7 (Homo sapiens, UniProt P50613)
T14 construct: purchased Ambit (KinomeScan screening)
Method: as §1

[15] = biological target: T15, ROCK2 (Homo sapiens, UniProt O75116)
T15 construct: unspecified tag (tagged kinase); purchased Ambit (KinomeScan screening)
Method: as §1

[16] = biological target: T16, TLK1 (Homo sapiens, UniProt Q9UKI8)
T16 construct: unspecified tag (tagged kinase); purchased Ambit (KinomeScan screening)
Method: as §1

[17] = biological target: T17, PRKD1 (Homo sapiens, UniProt Q15139)
T17 construct: purchased Ambit (KinomeScan screening service)
Method: as §1

[18] = biological target: T18, MELK (Homo sapiens, UniProt Q14680)
T18 construct: purchased Ambit (KinomeScan screening)
Method: as §1

[19] = biological target: T19, MRCKB (Homo sapiens, UniProt Q9Y5S2)
T19 construct: unspecified tag ('tagged kinases'); purchased Ambit (KinomeScan screening)
Method: as §1

[20] = biological target: T20, STK16 (Homo sapiens, UniProt O75716)
T20 construct: purchased Ambit (KinomeScan screening service)
Method: as §1

[21] = biological target: T21, PKAC-α (Homo sapiens, UniProt P17612)
T21 construct: unspecified tag; purchased Ambit (KinomeScan screening panel)
Method: as §1

[22] = biological target: T22, TRKB (Homo sapiens, UniProt Q16620)
T22 construct: tag, kind not specified; purchased Ambit (KinomeScan screening service)
Method: as §1

[23] = biological target: T23, FLT3 (Homo sapiens, UniProt P36888)
T23 construct: unspecified tag; purchased Ambit (KinomeScan screening service)
Method: as §1

[24] = biological target: T24, ERN1 (Homo sapiens, UniProt O75460)
T24 construct: unspecified tag ("tagged kinases"); purchased Ambit (KinomeScan screening service)
Method: as §1

[25] = biological target: T25, ERK2 (Homo sapiens, UniProt P28482)
T25 construct: unspecified tag ("tagged kinases"); purchased Ambit (KinomeScan screening service)
Method: as §1

[26] = biological target: T26, ZAP70 (Homo sapiens, UniProt P43403)
T26 construct: purchased Ambit (KinomeScan screening service)
Method: as §1

[27] = biological target: T27, RPS6KA6 (Homo sapiens, UniProt Q9UK32)
T27 construct: tag, kind not specified; purchased Ambit (KinomeScan screening service)
Method: as §1

[28] = biological target: T28, BRSK2 (Homo sapiens, UniProt Q8IWQ3)
T28 construct: unspecified tag ("tagged kinases"); purchased Ambit (KinomeScan screening)
Method: as §1

[29] = biological target: T29, PRKD2 (Homo sapiens, UniProt Q9BZL6)
T29 construct: purchased Ambit (KinomeScan screening service)
Method: as §1

[30] = biological target: T30, TEC (Homo sapiens, UniProt P42680)
T30 construct: unspecified tag (tagged kinase); purchased Ambit (KinomeScan screening)
Method: as §1

[31] = biological target: T31, DRAK1 (Homo sapiens, UniProt Q9UEE5)
T31 construct: unspecified tag ("tagged kinases"); purchased Ambit (KinomeScan screening service)
Method: as §1

[32] = biological target: T32, EGFR(L858R) (Homo sapiens, UniProt P00533, L858R)
T32 construct: unspecified tag; purchased Ambit (KinomeScan screening service)
Method: as §1

[33] = biological target: T33, SLK (Homo sapiens, UniProt Q9H2G2)
T33 construct: tag, kind not specified; purchased Ambit (KinomeScan screening service)
Method: as §1

[34] = biological target: T34, MEK6 (Homo sapiens, UniProt P52564)
T34 construct: purchased Ambit (KinomeScan screening)
Method: as §1

[35] = biological target: T35, CAMK1D (Homo sapiens, UniProt Q8IU85)
T35 construct: unspecified tag ("tagged kinases"); purchased Ambit (KinomeScan screening)
Method: as §1

[36] = biological target: T36, PDGFRB (Homo sapiens, UniProt P09619)
T36 construct: unspecified tag ('tagged kinases'); purchased Ambit (KinomeScan screening)
Method: as §1

[37] = biological target: T37, NEK7 (Homo sapiens, UniProt Q8TDX7)
T37 construct: purchased Ambit (KinomeScan screening service)
Method: as §1

Measured: Percent of Control Binding

T30 sequence (P42680 whole entry): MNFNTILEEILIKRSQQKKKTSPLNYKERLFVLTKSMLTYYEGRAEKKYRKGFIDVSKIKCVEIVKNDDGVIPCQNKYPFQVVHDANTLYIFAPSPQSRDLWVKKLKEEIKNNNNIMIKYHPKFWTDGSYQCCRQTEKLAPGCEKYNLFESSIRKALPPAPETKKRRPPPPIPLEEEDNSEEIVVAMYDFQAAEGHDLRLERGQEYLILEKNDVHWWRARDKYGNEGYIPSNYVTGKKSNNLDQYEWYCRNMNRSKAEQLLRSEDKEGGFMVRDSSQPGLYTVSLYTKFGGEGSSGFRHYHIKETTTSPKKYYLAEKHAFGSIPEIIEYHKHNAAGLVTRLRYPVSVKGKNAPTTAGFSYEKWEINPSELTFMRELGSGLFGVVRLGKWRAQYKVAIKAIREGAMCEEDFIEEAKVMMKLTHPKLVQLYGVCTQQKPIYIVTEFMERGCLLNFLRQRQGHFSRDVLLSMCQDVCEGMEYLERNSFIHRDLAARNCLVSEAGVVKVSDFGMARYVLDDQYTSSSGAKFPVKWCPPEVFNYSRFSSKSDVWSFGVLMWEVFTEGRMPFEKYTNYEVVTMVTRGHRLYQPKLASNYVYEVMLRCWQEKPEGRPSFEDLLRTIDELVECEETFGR
T31 sequence (Q9UEE5 whole entry): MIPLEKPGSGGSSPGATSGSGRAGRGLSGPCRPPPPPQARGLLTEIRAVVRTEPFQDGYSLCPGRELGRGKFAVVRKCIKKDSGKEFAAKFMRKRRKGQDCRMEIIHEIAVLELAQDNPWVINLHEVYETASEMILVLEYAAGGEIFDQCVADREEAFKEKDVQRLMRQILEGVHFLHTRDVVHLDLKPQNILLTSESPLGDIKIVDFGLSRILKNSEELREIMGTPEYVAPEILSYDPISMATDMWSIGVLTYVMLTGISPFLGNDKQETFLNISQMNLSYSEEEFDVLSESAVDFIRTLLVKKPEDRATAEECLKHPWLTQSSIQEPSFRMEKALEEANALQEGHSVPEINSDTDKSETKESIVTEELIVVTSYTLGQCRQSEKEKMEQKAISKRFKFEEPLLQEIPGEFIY
T16 sequence (Q9UKI8 whole entry): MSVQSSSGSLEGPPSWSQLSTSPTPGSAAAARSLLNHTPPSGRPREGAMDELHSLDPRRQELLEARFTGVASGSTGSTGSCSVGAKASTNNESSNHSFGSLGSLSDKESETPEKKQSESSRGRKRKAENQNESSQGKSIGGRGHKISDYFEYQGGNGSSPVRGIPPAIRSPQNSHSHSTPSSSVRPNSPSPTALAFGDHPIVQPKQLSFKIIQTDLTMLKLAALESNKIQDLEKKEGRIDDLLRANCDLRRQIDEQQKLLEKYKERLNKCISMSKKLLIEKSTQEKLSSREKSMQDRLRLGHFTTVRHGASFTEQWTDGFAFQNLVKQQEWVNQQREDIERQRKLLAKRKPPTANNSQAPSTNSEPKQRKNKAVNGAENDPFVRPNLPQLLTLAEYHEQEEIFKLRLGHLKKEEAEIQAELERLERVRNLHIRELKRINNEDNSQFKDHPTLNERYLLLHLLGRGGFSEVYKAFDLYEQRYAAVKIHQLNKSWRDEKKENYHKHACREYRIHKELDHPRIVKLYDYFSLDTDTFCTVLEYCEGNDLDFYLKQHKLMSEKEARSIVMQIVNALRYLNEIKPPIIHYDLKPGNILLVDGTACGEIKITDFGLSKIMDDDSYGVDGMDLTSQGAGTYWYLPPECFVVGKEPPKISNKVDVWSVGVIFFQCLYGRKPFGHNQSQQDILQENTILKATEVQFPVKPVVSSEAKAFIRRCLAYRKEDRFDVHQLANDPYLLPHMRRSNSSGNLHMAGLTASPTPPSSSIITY
T15 sequence (O75116 whole entry): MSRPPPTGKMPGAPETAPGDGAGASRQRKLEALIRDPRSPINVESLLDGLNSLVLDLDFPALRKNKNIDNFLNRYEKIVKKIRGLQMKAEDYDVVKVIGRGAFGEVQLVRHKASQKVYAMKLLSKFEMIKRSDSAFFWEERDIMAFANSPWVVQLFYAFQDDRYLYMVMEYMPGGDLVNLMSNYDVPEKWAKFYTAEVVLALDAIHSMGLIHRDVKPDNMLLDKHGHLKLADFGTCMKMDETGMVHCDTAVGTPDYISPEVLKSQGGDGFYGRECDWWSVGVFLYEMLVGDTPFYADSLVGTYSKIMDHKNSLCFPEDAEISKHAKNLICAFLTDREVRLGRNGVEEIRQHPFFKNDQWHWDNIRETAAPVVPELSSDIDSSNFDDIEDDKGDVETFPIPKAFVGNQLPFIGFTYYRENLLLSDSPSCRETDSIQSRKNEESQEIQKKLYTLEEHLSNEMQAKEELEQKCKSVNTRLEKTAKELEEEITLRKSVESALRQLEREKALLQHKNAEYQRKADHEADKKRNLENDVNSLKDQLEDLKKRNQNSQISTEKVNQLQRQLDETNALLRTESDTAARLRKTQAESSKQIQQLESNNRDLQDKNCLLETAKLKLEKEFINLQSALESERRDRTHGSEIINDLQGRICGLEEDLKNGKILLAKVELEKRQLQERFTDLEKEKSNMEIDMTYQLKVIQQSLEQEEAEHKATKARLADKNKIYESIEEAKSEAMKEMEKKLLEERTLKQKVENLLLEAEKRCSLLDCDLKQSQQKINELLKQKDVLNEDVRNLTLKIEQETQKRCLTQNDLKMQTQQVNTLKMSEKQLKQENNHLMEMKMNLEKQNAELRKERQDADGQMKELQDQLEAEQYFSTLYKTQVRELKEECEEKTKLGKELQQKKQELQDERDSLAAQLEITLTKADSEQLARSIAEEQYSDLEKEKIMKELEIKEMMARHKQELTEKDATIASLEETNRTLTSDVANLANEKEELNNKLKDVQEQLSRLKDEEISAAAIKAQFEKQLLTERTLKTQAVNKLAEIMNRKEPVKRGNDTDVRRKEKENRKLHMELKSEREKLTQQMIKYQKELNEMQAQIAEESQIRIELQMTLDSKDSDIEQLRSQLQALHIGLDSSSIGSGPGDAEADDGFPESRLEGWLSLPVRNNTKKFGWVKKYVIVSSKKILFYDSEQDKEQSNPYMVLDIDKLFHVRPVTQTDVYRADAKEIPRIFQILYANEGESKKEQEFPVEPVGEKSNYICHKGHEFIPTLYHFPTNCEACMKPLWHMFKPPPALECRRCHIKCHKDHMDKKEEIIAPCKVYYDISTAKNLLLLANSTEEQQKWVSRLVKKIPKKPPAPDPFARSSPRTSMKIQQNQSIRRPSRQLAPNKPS
T9 sequence (Q13523 whole entry): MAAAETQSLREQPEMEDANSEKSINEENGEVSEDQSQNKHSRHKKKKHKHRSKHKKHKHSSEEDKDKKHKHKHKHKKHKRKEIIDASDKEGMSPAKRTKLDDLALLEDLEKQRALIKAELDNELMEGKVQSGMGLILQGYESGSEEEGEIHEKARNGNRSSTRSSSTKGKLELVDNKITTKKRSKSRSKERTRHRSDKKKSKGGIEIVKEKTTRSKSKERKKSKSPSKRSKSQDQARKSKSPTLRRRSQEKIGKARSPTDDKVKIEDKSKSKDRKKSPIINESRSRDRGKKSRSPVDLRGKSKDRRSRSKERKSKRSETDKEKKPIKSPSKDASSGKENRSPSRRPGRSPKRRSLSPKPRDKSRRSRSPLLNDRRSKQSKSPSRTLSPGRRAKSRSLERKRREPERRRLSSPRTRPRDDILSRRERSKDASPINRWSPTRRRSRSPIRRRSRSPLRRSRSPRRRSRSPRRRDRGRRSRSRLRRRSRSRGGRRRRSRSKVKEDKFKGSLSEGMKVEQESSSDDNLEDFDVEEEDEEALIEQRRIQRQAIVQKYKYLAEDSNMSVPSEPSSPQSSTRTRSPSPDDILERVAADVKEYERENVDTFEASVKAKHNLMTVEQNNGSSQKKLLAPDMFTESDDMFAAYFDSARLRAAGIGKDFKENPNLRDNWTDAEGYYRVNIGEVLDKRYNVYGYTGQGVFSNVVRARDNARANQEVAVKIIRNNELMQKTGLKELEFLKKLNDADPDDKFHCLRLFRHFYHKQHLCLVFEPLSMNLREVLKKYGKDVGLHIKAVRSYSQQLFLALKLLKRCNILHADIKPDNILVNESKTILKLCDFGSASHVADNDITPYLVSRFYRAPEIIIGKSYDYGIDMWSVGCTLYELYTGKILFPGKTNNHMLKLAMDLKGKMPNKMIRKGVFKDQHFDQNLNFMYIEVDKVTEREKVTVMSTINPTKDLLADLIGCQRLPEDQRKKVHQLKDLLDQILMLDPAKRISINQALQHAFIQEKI
T6 sequence (P27361 whole entry): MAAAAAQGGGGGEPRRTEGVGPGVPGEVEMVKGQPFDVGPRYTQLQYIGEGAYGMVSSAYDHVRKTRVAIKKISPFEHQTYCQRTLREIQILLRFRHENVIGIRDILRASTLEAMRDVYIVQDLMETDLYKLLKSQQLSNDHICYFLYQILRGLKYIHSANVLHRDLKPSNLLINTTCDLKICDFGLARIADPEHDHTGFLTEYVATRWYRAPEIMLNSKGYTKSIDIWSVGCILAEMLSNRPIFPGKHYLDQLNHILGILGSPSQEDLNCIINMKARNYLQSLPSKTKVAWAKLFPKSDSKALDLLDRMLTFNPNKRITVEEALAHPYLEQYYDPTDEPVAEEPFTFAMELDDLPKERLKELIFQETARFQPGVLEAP
T13 sequence (Q13043 whole entry): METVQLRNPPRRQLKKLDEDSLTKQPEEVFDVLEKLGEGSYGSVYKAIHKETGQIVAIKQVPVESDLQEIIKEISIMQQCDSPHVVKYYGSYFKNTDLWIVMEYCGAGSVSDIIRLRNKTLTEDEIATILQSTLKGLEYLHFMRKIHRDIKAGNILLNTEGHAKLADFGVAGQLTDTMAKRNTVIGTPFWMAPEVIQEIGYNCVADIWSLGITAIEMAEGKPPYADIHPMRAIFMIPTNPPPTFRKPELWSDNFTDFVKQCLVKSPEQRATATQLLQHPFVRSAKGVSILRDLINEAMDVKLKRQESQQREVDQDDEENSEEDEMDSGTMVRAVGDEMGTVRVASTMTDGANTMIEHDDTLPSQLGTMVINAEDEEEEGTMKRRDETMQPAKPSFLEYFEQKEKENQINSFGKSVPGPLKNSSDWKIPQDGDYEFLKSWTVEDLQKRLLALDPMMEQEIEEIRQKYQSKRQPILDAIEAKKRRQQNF

Cc1ccccc1-n1c(C(C)Nc2nc(N)nc3nc[nH]c23)nc2cccc(C)c2c1=O (stereo not shown) [CAL-130]
100%: all assays above
